Data: patent publication US12422443B2, “Amino-substituted chromenoquinoline-based fluorescent marker, and preparation and use thereof” (SOOCHOW UNIVERSITY, priority 2021, dated 2025)

Experiments:
[1] = Ultraviolet absorption and fluorescence emission in dichloromethane; format: physicochemical; conditions: 10 μM in dichloromethane; for highest fluorescence intensity (emission wavelength): excitation 428 nm (1a), 407 nm (1b), 461 nm (1c), 430 nm (1d), slit 3 nm/3 nm (1d: 5 nm/3 nm)
Method: The ultraviolet absorption and fluorescence emission performances of the dyes 1a-1d prepared above (at a concentration of 10 μM) in dichloromethane were tested. The horizontal ordinate is the wavelength, and the vertical ordinate is the absorbance and fluorescence intensity, respectively.
(§1) The ultraviolet absorption and fluorescence emission spectra of the fluorescent marker 1a (at a concentration of 10 μM) in dichloromethane are shown in FIG. 3. The fluorescent marker 1a has the maximum absorption at 452 nm (FIG. 3 (a)); and the fluorescent marker 1a has the highest fluorescence intensity at 532 nm (FIG. 3 (e)), where the excitation wavelength is 428 nm, and the slit width is 3 nm/3 nm.
as §1, with “1b” for “1a”, “473” for “452”, “(b));” for “(a));”, “562” for “532”, “(f)),” for “(e)),”, “407” for “428”
as §1, with “1c” for “1a”, “375” for “452”, “(c));” for “(a));”, “546” for “532”, “(g)),” for “(e)),”, “461” for “428”
The ultraviolet absorption and fluorescence emission spectra of the fluorescent marker 1d (at a concentration of 10 μM) in dichloromethane are shown in FIG. 3. The fluorescent marker 1d has the maximum absorption at 429 nm (FIG. 3 (d)); and the fluorescent marker 1d has the highest fluorescence intensity at 495 nm (FIG. 3 (h)), where the excitation wavelength is 430 nm, and the slit width is 5 nm/3 nm.

[2] = tested on: lipid droplets in Hela cells; experiment: Lipid droplet labeling, colocalized confocal imaging with Nile Red in Hela cells; format: cell-based; conditions: 5 min; for lipid droplet labeling ability (in words): 1a and 1b 6 μM, 1c 5 μM, 1d 8 μM
Description: In the following examples, the cells are imaged by laser confocal microscopy, where excitation at 405 nm is employed in the green light channel, and the fluorescence signal in the range of 468-550 nm is collected; and excitation at 561 nm is employed in the red light channel, and the fluorescence signal in the range of 570-750 nm is collected.
To test the fluorescent labeling ability of the fluorescent marker 1a compared with a commercial lipid droplet marker, the fluorescent marker 1a was prepared into a stock solution in dimethyl sulfoxide, and then added to a conventional cell culture medium, to give a concentration of the fluorescent marker 1a in the cell culture medium of 6 μM. Subsequently, Nile Red (100 nM), a lipid droplet red marker, was added and co-incubated with Hela cells in an incubator at saturated humidity, 37° C., and 5% CO2 for 5 min (the same below); The cells were washed three times with a PBS buffer, and imaged by laser confocal microscopy, where excitation at 405 nm was employed in the green light channel, and the fluorescence signal in the range of 468-550 nm was collected; and excitation at 561 nm was employed in the red light channel, and the fluorescence signal in the range of 570-750 nm was collected. The results are shown in FIG. 5, in which (a) is the bright field, (b) is the cell image with the fluorescent marker 1a, (c) is the cell image with the lipid droplet Red marker, (d) is overlapped image of the green light channel and the red light channel, (e) is the fluorescence intensity of the ROI line in the overlapped image, and (f) is the colocalization assay, where the colocalization coefficient is 0.95.
To verify the labeling effect of the fluorescent marker 1b (6 μM) on lipid droplets in Hela cells, the same experimental method as that with the fluorescent marker 1a was used.
The experimental method with the fluorescent marker 1c (5 μM) was the same as that with the fluorescent marker 1a.
To verify whether Compound 1d can be used in fluorescence imaging of lipid droplets in Hela cells just as the probes 1a-1c do, a cell assay was carried out. The fluorescent marker 1d was prepared into a stock solution in dimethyl sulfoxide, and then added to a conventional cell culture medium, to give a concentration of the fluorescent marker 1d in the cell culture medium of 8 μM. The Hela cells were co-incubated in an incubator at saturated humidity, 37° C., 5% CO2 for 5 min. The cells were washed three times with a PBS buffer, and imaged by laser confocal microscopy, where excitation at 405 nm was employed in the green light channel, and the fluorescence signal in the range of 468-550 nm was collected. […] The results are shown in FIG. 5, in which(s) is the bright field, (t) is the cell image with the fluorescent marker 1d, (u) is the cell image with the lipid droplet Red marker, (v) is overlapped image of the green light channel and the red light channel, (w) is the fluorescence intensity of the ROI line in the overlapped image, and (x) is the colocalization assay, where the colocalization coefficient is 0.90.

[3] = Photostability under iodine-tungsten lamp irradiation (residual absorptivity); format: physicochemical; conditions: 10 μM in acetonitrile, 500 W iodine-tungsten lamp at 25 cm, 6 hrs irradiation
Method: The photostability of the above prepared dyes 1a-1d was tested (at a concentration of 10 μM). Dyes 1a-1d and the reference substance Cy7 of corresponding weights were weighed, and respectively dissolved in acetonitrile (at a concentration of 10 μM). All samples were irradiated with a Philips iodine-tungsten lamp (500 W), where the distance between the lamp and the sample was set to 25 cm. An 8 cm-thick sodium nitrite (60 g per liter) cold trap was placed between the lamp and the sample, to eliminate the heat and short-wavelength light. The irradiation was continued for 6 hrs, during which UV and fluorescence were performed every half hour. After six hours, the light stability was measured by residual absorptivity calculated based on the change in the absorption intensity at various times before and after the irradiation. […] It can be seen that dyes 1a-1d have higher photostability compared to cyanine dyes.

[4] = tested on: mitochondria in Hela cells; experiment: Mitochondria labeling, colocalized confocal imaging with CMA Ros in Hela cells; format: cell-based
[5] = 6 μM marker with Nile Red (100 nM)

maximum absorption [1] [nm]	highest fluorescence intensity (emission wavelength) [1] [nm]	photostability (residual absorptivity) [3] [%]	SMILES	colocalization coefficient [2, 5]	lipid droplet labeling ability (in words) [2]	colocalization coefficient ([2]; 5 μM marker with Nile Red (100 nM))	mitochondria labeling ability (in words) ([4]; 8 μM)	colocalization coefficient ([4]; 8 μM marker with CMA Ros (100 nM))
452	532	46	CCN(CC)c1ccc2nc3c(cc2c1)c(=O)oc1ccccc13 [1a]	0.95	has lipid droplet labeling ability in Hela cells			
473	562	43	CCN(CC)c1ccc2nc3c(cc2c1)c(=O)oc1cc(N(CC)CC)ccc13 [1b]	0.97	good targeting ability to lipid droplets in Hela cells			
375	546	76	CCN(CC)c1ccc2c(c1)oc(=O)c1cc3ccc4ccccc4c3nc12 [1c]		good targeting ability to lipid droplets in Hela cells	0.85		
429	495	71	CCN(CC)c1ccc2c(c1)oc(=O)c1cc3c(ccc4nc5c(cc43)c(=O)oc3cc(N(CC)CC)ccc35)nc12 [1d]		does not stain the lipid droplets in the cells		has the ability to label mitochondria	0.90
